Reference: US20230167073A1 (Teijin Pharma Limited, priority 2020, published 2023)

These compounds were tested against T1, Human TRPC6 (Homo sapiens, UniProt Q9Y210) (assay: Evaluation of TRPC6 channel inhibitory activity (2), HEK293 cells with stably introduced human TRPC6, OAG stimulation, FLIPR tetra (Compound Nos. 1293 to 1405)). Details: HEK293 cells with stably introduced human TRPC6, OAG 50 μM/0.5% DMSO, read-out: Inhibitory activity (pIC50 class) (converted).
T1 construct: expressed in transfected cells
T1 sequence (Q9Y210 1-931): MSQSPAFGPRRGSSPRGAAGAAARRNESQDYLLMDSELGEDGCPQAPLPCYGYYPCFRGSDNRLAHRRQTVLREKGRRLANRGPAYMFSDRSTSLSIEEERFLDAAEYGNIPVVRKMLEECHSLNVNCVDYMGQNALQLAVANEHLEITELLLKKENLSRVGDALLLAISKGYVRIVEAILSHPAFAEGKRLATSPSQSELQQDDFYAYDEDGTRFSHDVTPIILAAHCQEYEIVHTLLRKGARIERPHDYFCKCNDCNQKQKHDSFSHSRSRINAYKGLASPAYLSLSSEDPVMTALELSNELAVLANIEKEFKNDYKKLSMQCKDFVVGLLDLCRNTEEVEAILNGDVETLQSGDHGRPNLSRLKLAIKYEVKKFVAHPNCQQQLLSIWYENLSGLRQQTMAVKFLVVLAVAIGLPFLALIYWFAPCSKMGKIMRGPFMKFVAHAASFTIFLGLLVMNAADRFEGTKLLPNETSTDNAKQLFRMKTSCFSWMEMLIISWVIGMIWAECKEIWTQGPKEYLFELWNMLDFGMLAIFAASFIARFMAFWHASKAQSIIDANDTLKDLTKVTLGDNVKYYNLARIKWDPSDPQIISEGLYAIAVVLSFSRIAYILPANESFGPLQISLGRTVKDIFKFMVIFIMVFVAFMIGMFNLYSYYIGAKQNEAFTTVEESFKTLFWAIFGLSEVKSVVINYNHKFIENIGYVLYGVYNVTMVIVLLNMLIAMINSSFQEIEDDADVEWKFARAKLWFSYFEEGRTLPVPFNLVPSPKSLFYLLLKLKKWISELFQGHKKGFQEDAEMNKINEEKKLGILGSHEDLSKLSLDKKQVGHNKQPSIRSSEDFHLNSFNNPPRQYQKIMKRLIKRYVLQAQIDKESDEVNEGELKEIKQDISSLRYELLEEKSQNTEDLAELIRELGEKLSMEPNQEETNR
Format: cell-based
In short: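 Calcium-dye-loaded HEK293 cells stably expressing human TRPC6 were pretreated with compound for 25 min, then stimulated with 50 μM OAG (0.5% DMSO) in Ca ringer buffer pH 7.2 with 2 mM CaCl2. Background-subtracted FLIPR calcium peaks were normalized to OAG (100%) and buffer (0%); pIC50 came from four-parameter logistic fit, binned as +/++/+++.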

| IC50 [nM] | SMILES |
| --- | --- |
| 10 to 1000 | Cc1nc(Oc2cc(Cl)ccc2-c2ncc([C@H](F)CN)cn2)cc(N2CCOCC2)n1 [compound 1375, (2S)-2-[2-[4-chloro-2-(2-methyl-6-morpholin-4-ylpyrimidin-4-yl)oxyphenyl]pyrimidin-5-yl]-2-fluoroethanamine] |
| 10 to 1000 | Cc1nc(Oc2cc(Cl)ccc2-c2ncc([C@@H](O)CN)cn2)cc(N2CCOCC2)n1 [compound 1376, (1R)-2-amino-1-[2-[4-chloro-2-(2-methyl-6-morpholin-4-ylpyrimidin-4-yl)oxyphenyl]pyrimidin-5-yl]ethanol] |
| 10 to 1000 | Cc1nc(Oc2cc(Cl)ccc2-c2ncc([C@H](O)CN)cn2)cc(N2CCOCC2)n1 [compound 1377, (1S)-2-amino-1-[2-[4-chloro-2-(2-methyl-6-morpholin-4-ylpyrimidin-4-yl)oxyphenyl]pyrimidin-5-yl]ethanol] |
| 10 to 1000 | Cc1nc(Oc2cc(Cl)ccc2-c2ncc(CCN)cn2)cc(N2CCOCC2)n1 [compound 1378, 2-[2-[4-chloro-2-(2-methyl-6-morpholin-4-ylpyrimidin-4-yl)oxyphenyl]pyrimidin-5-yl]ethanamine] |
| > 1000 | Cn1nc(-c2ccccn2)cc1Oc1cc(Cl)ccc1-c1ccc([C@H](N)C(F)(F)F)cn1 [compound 1379, (1S)-1-[6-[4-chloro-2-(2-methyl-5-pyridin-2-ylpyrazol-3-yl)oxyphenyl]pyridin-3-yl]-2,2,2-trifluoroethanamine] |
| < 10 | C[C@@H](N)c1ccc(-c2ccc(Cl)cc2Oc2cc(-c3ccccn3)nn2C)nc1 [compound 1380, (1R)-1-[6-[4-chloro-2-(2-methyl-5-pyridin-2-ylpyrazol-3-yl)oxyphenyl]pyridin-3-yl]ethanamine] |
| 10 to 1000 | Cn1nc(C2CC2)cc1Oc1cc(F)ccc1-c1ncc([C@@H](F)CN)cn1 [compound 1382, (2R)-2-[2-[2-(5-cyclopropyl-2-methylpyrazol-3-yl)oxy-4-fluorophenyl]pyrimidin-5-yl]-2-fluoroethanamine] |
| 10 to 1000 | Cn1nc(C2CC2)cc1Oc1cc(F)ccc1-c1ncc([C@H](O)CN)cn1 [compound 1383, (1S)-2-amino-1-[2-[2-(5-cyclopropyl-2-methylpyrazol-3-yl)oxy-4-fluorophenyl]pyrimidin-5-yl]ethanol] |
| 10 to 1000 | Cn1nc(C2CC2)cc1Oc1cc(F)ccc1-c1ncc([C@@H](O)CN)cn1 [compound 1384, (1R)-2-amino-1-[2-[2-(5-cyclopropyl-2-methylpyrazol-3-yl)oxy-4-fluorophenyl]pyrimidin-5-yl]ethanol] |
| 10 to 1000 | Cc1cc(Oc2cc(Cl)cnc2-c2ncc(CCN)cn2)cc(N2CCOCC2)n1 [compound 1385, 2-[2-[5-chloro-3-(2-methyl-6-morpholin-4-ylpyridin-4-yl)oxypyridin-2-yl]pyrimidin-5-yl]ethanamine] |
| 10 to 1000 | Cn1nc(C2CCOCC2)cc1Oc1cc(Cl)ccc1-c1ccc([C@H](F)CN)cn1 [compound 1386, (2S)-2-[6-[4-chloro-2-[2-methyl-5-(oxan-4-yl)pyrazol-3-yl]oxyphenyl]pyridin-3-yl]-2-fluoroethanamine] |
| < 10 | Cn1nc(C2CCOCC2)cc1Oc1cc(Cl)ccc1-c1ccc([C@@H](F)CN)cn1 [compound 1387, (2R)-2-[6-[4-chloro-2-[2-methyl-5-(oxan-4-yl)pyrazol-3-yl]oxyphenyl]pyridin-3-yl]-2-fluoroethanamine] |
| 10 to 1000 | Cn1nc(C2CCOCC2)cc1Oc1cc(Cl)ccc1-c1ncc([C@H](O)CN)cn1 [compound 1388, (1S)-2-amino-1-[2-[4-chloro-2-[2-methyl-5-(oxan-4-yl)pyrazol-3-yl]oxyphenyl]pyrimidin-5-yl]ethanol] |
| 10 to 1000 | Cn1nc(C2CCOCC2)cc1Oc1cc(Cl)ccc1-c1ncc([C@@H](O)CN)cn1 [compound 1389, (1R)-2-amino-1-[2-[4-chloro-2-[2-methyl-5-(oxan-4-yl)pyrazol-3-yl]oxyphenyl]pyrimidin-5-yl]ethanol] |
| 10 to 1000 | Cn1nc(C2CCOCC2)cc1Oc1cc(Cl)ccc1-c1ncc(CCN)cn1 [compound 1390, 2-[2-[4-chloro-2-[2-methyl-5-(oxan-4-yl)pyrazol-3-yl]oxyphenyl]pyrimidin-5-yl]ethanamine] |
| > 1000 | Cc1cc(Oc2cc(C#N)ccc2-c2ncc3c(n2)CNC3)cc(N2CCOCC2)n1 [compound 1392, 4-(6,7-dihydro-5H-pyrrolo[3,4-d]pyrimidin-2-yl)-3-(2-methyl-6-morpholin-4-ylpyridin-4-yl)oxybenzonitrile] |
| 10 to 1000 | Cn1nc(-c2ccccn2)cc1Oc1cc(C#N)ccc1-c1ncc2c(n1)CNC2 [compound 1393, 4-(6,7-dihydro-5H-pyrrolo[3,4-d]pyrimidin-2-yl)-3-(2-methyl-5-pyridin-2-ylpyrazol-3-yl)oxybenzonitrile] |
| 10 to 1000 | Cc1cc(Oc2cc(Cl)ccc2-c2ccc([C@@H](F)CN)cn2)cc(N2CCOCC2)n1 [compound 1394, (2R)-2-[6-[4-chloro-2-(2-methyl-6-morpholin-4-ylpyridin-4-yl)oxyphenyl]pyridin-3-yl]-2-fluoroethanamine] |
| < 10 | Cc1cc(Oc2cc(Cl)ccc2-c2ccc([C@@H](O)CN)cn2)cc(N2CCOCC2)n1 [compound 1395, (1R)-2-amino-1-[6-[4-chloro-2-(2-methyl-6-morpholin-4-ylpyridin-4-yl)oxyphenyl]pyridin-3-yl]ethanol] |
| 10 to 1000 | Cc1cc(Oc2cc(Cl)ccc2-c2ccc([C@H](O)CN)cn2)cc(N2CCOCC2)n1 [compound 1396, (1S)-2-amino-1-[6-[4-chloro-2-(2-methyl-6-morpholin-4-ylpyridin-4-yl)oxyphenyl]pyridin-3-yl]ethanol] |
| 10 to 1000 | Cc1cc(Oc2cc(Cl)cnc2-c2ccc([C@@H](F)CN)cn2)cc(N2CCOCC2)n1 [compound 1397, (2R)-2-[6-[5-chloro-3-(2-methyl-6-morpholin-4-ylpyridin-4 yl)oxypyridin-2-yl]pyridin-3-yl]-2-fluoroethanamine] |
| < 10 | Cc1cc(Oc2cc(Cl)cnc2-c2ccc([C@H](F)CN)cn2)cc(N2CCOCC2)n1 [compound 1398] |
| > 1000 | Cn1nc(C2CCOCC2)cc1Oc1cc(Cl)cnc1-c1ccc(C(F)(F)CN)cn1 [compound 1399, 2-[6-[5-chloro-3-[2-methyl-5-(oxan-4-yl)pyrazol-3-yl]oxypyridin-2-yl]pyridin-3-yl]-2,2-difluoroethanamine] |
| 10 to 1000 | Cn1nc(C2CCOCC2)cc1Oc1cc(C#N)ccc1-c1ccc(C(F)(F)CN)cn1 [compound 1400, 4-[5-(2-amino-1,1-difluoroethyl)pyridin-2-yl]-3-[2-methyl-5-(oxan-4-yl)pyrazol-3-yl]oxybenzonitrile] |
| 10 to 1000 | Cn1nc(-c2ccccn2)cc1Oc1cc(Cl)ccc1-c1ccc([C@@H](O)CN)cn1 [compound 1401, (1R)-2-amino-1-[6-[4-chloro-2-(2-methyl-5-pyridin-2-ylpyrazol-3-yl)oxyphenyl]pyridin-3-yl]ethanol] |
| 10 to 1000 | Cc1nc(Oc2cc(C#N)ccc2-c2ncc([C@H](F)CN)cn2)cc(N2CCOCC2)n1 [compound 1403, 4-[5-[(1S)-2-amino-1-fluoroethyl]pyrimidin-2-yl]-3-(2-methyl-6-morpholin-4-ylpyrimidin-4-yl)oxybenzonitrile] |
| < 10 | Cn1nc(-c2ccccn2)cc1Oc1cc(Cl)cc(F)c1-c1ccc(CN)cn1 [compound 1404, [6-[4-chloro-2-fluoro-6-(2-methyl-5-pyridin-2-ylpyrazol-3-yl)oxyphenyl]pyridin-3-yl]methanamine] |
| > 1000 | Cc1nc(Oc2cc(Cl)ccc2-c2ncc(CCN)cn2)c(C)c(N2CCOCC2)n1 [compound 1405, 2-[2-[4-chloro-2-(2,5-dimethyl-6-morpholin-4-ylpyrimidin-4-yl)oxyphenyl]pyrimidin-5-yl]ethanamine] |
